Test results reported in a melting point compilation (Tetko et al.; mined from patent text by program, amines drawn as free bases though some values may be those of a salt).

melting point [°C]	SMILES
191 to 193	Cc1ccccc1OCC(O)CN1CCC2(CC1)CSC1=C(O2)c2ccccc2C(=O)C1=O (stereo not drawn)
115 to 116	CCOc1ccc(OCc2ccc(OCc3nc(-c4ccccc4)oc3C)cc2)c(CCC(=O)O)c1
106 to 107	CCOC(=O)c1cc2cccc(NS(=O)(=O)c3ccccc3OC)c2n1COC
274 to 279	CC(C)(C)C(=O)Nc1ccc(-c2ccncc2)cc1
178 to 179	CC(C)(C)c1cc(-c2cncn2CCCCl)cc(C(C)(C)C)c1O
257 to 258	CC(C)c1ccc(-c2csc(-c3ccc(C(=O)O)cc3)n2)cc1
221 to 223	CCc1cn2c(=O)c(C(=O)O)cnc2c2ccccc12
155 to 158	CCc1nc2c(cnn2CC)c(NC2CCOCC2)c1CNC(=O)c1cccc(C(=O)NCc2ccc(F)c(-c3cccc(CN4CCN(CC)CC4)c3)c2)c1
137 to 138	CCOC(=O)c1c(N2CCN(c3ccccc3)CC2)n[nH]c1C
81	CC1CCN(c2ccc([N+](=O)[O-])cc2C(=O)c2ccccc2)CC1
118	CCCCOc1ccc(S(=O)(=O)C2(C(=O)O)CCN(C)CC2)cc1
158 to 159	CCC(=O)c1ccc2cc(O)ccc2c1
165 to 167	CC1=C(N)C(C)C2CC(C)(CN3CCN(c4ccc(-n5ccnc5)cc4)CC3)OC2=C1C (stereo not drawn)
222 to 223	CN1NN=C(NC(=O)c2cccc3cccnc23)N1
140 to 141	COC12CC(C)(C)C(O1)C(OC(=O)c1ccc([N+](=O)[O-])cc1)C=C2C (stereo not drawn)
214 to 215	c1cc(-c2ccncn2)cc(-n2cnc3cc(-c4ccon4)ccc32)c1
144 to 145	CCc1c(-c2ccc(OCc3ccccc3)cc2)cn2cccc(CO)c12
41.9 to 42.7	CCCCCCCCCCCCCCCCC[C@@H]1OC[C@@H](COC(=O)CCCCCOS(=O)(=O)c2ccc(C)cc2)O1 (relative stereo)
127	CCCCN(CCCOc1ccc2ccccc2c1)c1ccc(OC)cc1
173 to 174	CCCCN(CCCC)S(=O)(=O)c1cc(O)c(N=Nc2c(C)nn(-c3ccccc3)c2O)c2ccccc12
141 to 143	CC(=O)Nc1cc(C(O)CN(Cc2ccccc2)C(C)Cc2ccc(O)cc2)ccc1OCc1ccccc1 (stereo not drawn)
182 to 187	COc1cc(OCc2ccccn2)ccc1/C=C/c1cc(/C=C/c2ccc3ccn(C(C)=O)c3c2)n[nH]1
139 to 141	CCC(=O)NCCC1CN(C=O)c2ccc3c(c21)CCO3 (stereo not drawn)
108 to 112	O=C1C(=CN2CCCC2)c2ccccc2N1c1cccc(Cl)c1
142 to 144	COc1ccc(-c2[nH]cnc2-c2cc(OC)c(N)c(OC)c2)cc1O

melting point [°C]	SMILES
149 to 152	COCc1c(C=C(Br)Br)ncc2c1c1c(OCc3ccccc3)cccc1n2S(=O)(=O)c1ccc(C)cc1
100 to 101	COC(=O)c1ccc(Cl)c(O)c1
112 to 113	O=C1CCCc2cc(F)cc(Sc3ccccc3)c21
102	Cc1cc(OCc2coc(C=Cc3ccc(SC(F)(F)F)cc3)n2)ccc1COCCn1ccnn1
122 to 124	COc1cc(-c2cn(-c3cccc(OCCn4ccnc4)c3)c3ncnc(N)c23)ccc1OCc1ccccc1
148	CCCCOC(=O)c1ccc(C(C(N)=O)C(C)c2ccccc2N2CCCCC2)cc1 (stereo not drawn)
172	CCOC(=O)C1=C(C)NC(N=CCN(C)C)=C(C(=O)OCC)C1c1cccc([N+](=O)[O-])c1 (stereo not drawn)
190 to 192	Cc1ccc(-n2nc(Sc3ccc(Cl)cc3)c(C)c(C#N)c2=O)cc1
125 to 127	CCCCC(CC)COc1ccc2c(-c3ccc(C=O)cc3)c3cc(OCC(CC)CCCC)ccc3c(-c3ccc(C=O)cc3)c2c1 (stereo not drawn)
104 to 105	Cc1nnc(-c2cccc(I)c2)o1
235	c1ccc(Cc2ncc(-c3cnc(-c4ccccc4)nc3)[nH]2)cc1
203 to 205	CC(=O)Nc1cccc2c1CC(=O)CC2
183 to 186	COc1ccc(Cl)cc1C(=O)NCCc1ccc(I)c(S(=O)(=O)N=CN(C)C)c1
88 to 91	BrCC=Cc1ccc(-c2cnc(CSCCOc3ccccc3)o2)cc1
111 to 112	CSC(=O)c1c(O)ccc2ccccc12
177 to 187	Oc1cc2ccc(Cc3ccccc3)cc2cc1O
142 to 150	COC(=O)c1cc(C(=O)OC)cc(S(=O)(=O)Nc2ccc(F)cc2C(F)(F)F)c1
140 to 141	O=C(N[C@H]1CCCNC1=O)c1ccc(F)cc1F
121 to 122	COC(=O)C(C)(C)Nc1ncc(I)cc1[N+](=O)[O-]
60 to 62	O=C(CCC1CCCCC1)C1=C(O)CSC1=O
92 to 94	CC(C)COC(=O)N1CCN(C2=C(Cl)C(=O)c3ccccc3C2=O)CC1
188 to 190	N#CC1=C(c2ccccc2)CN(c2ccccc2)C1=O
211 to 215	COC(=O)Nc1cnc2ccc(Sc3ccccc3)cn12
178 to 179	O=C(CC1=C(n2nc(-c3c(-c4ccccc4)nn4ccccc34)ccc2=O)CCCC1)N1CCCC1
144 to 147	Cc1ccnc(NC(c2ccc(C(F)(F)F)cc2)c2ccc3cccnc3c2O)n1 (stereo not drawn)

melting point [°C]	SMILES
93	COC(CN1CCN(c2ccccc2)CC1)c1ccc(C)nc1 (stereo not drawn)
115 to 117	CCOC(=O)c1cnc2ccc(OC)nc2c1Nc1ccc(OC)cc1
187 to 189	N#Cc1cc([N+](=O)[O-])ccc1OC12CC3CC(CC(C3)C1)C2
115 to 117	CN(C)CCCC1CCCN(C(=O)N2c3ccccc3C(=O)Nc3cccnc32)C1 (stereo not drawn)
62 to 64	CCOC(=O)C(Sc1nc2cc(Cl)ccc2s1)c1ccccc1 (stereo not drawn)
246 to 248	O=C(O)c1cn(C2CC2)c2nc(N3CCC(n4ccnn4)CC3)c(F)cc2c1=O
167 to 169	CS(=O)(=O)Nc1cc(F)cc(C(O)CN)c1 (stereo not drawn)
110 to 111	CC(C)c1nc(COCCOC(N)=O)n(Cc2ccccn2)c1Sc1cc(F)cc(F)c1
175 to 178	CCc1[nH]n(C2CCCC2)c2nc(-c3ccc(OCCCN(C)C)cc3)nc(=O)c1-2
186	CC(=O)N[C@@H](Cc1cscn1)C(=O)O
108	O=C(O)CCNC(=O)C(=Cc1ccc(Oc2ccccc2)cc1)CS
138	COCCN(CCOC)c1ccc(Nc2ncc3c(C)c(C(C)=O)c(=O)n(C4CCCC4)c3n2)nc1
219 to 221	CCOC(=O)c1cc(O)c2nc(C)c(C)n2c1
173	Cc1sc(C=O)cc1C(=O)O
212 to 214	O=C(O)c1cc(C(=O)C2CCCCC2)cc2c1OC(c1ccccc1)(c1ccccc1)O2
145 to 147	COc1ccc2[nH]c(S(=O)Cc3nccc(N(C)C)c3F)nc2c1 (stereo not drawn)
73 to 74	COc1ccc(OCC(O)CO)cc1 (stereo not drawn)
231 to 232	CC1(C)C(=O)Nc2ccc(-c3cccc(C#N)c3F)cc21
67 to 68	C#CCCCCOc1ccc(C=O)cc1OC
163 to 165	CC(=S)NC[C@H]1CN(c2ccc(N3CCN(C(=O)CO)CC3)c(F)c2)C(=O)O1
16 to 18	CCOC(=O)c1cccc(OCCCCCCCc2cc(C)no2)c1
61.7	CCCCCCCCCc1cnc(-c2ccc(C(=O)OC)cc2)nc1
110 to 112	COc1ccc(COc2c(C)c(C)c3c(c2C)C(c2ccc(N4CCOCC4)cc2)C(C)(C)O3)cc1 (stereo not drawn)
177 to 178	Cc1cc(NCc2ccccc2)c(N)c(Cl)n1
145 to 146	c1ccc(C(OC2CCN(CCCCNc3ccc4nncn4n3)CC2)c2ccccc2)cc1

melting point [°C]	SMILES
173 to 174	CC(C)c1onc(-c2ccccc2)c1S(=O)(=O)c1ccc(O)cc1
125	CC(C)(C)OC(=O)Nc1cc(OCC#N)c(I)cc1[N+](=O)[O-]
109 to 110	CCCC(=O)c1cnc2c(OCCCN(C)C)cccc2c1Nc1ccccc1C
251 to 253	CC1Cc2c(N3CCCC(O)C3)c(F)cc3c(=O)c(C(=O)O)cn1c23 (stereo not drawn)
185 to 186	Oc1nn(-c2ccccc2)cc1Cc1ccccc1
195 to 200	CC(NC(=O)Cc1cc(F)cc(F)c1)C(=O)NC1NC(=O)Cc2cc(F)ccc21 (stereo not drawn)
150 to 151	CCOc1cc2c(cc1O[Si](C)(C)C(C)(C)C)C(=O)CC1C2CCC2(C)C(O[Si](C)(C)C(C)(C)C)CCC12 (stereo not drawn)
53	CCOCCNc1nc(S)nc(N[C@@H](C)c2ccccc2)n1
60	O=Cc1cccc(CF)n1
96	c1ccc(COc2ccc(OCC3CC3)cc2)cc1
105 to 107	O=C(NCC12CC3CC(CC(C3)C1)C2)c1cc(CCCNCCCO)cnc1Cl
125	CC(=O)N1C(=O)N(c2cc(Cl)cc(Cl)c2)C(=O)[C@]12CNC[C@H]2c1ccc(C#N)cc1 (relative stereo)
208 to 210	O=S1CCON=C1c1nnc(-c2cccc(Cl)c2)o1 (stereo not drawn)
233 to 234	COc1ccc(Cn2c(=O)[nH]c3nccnc3c2=O)cc1
130 to 132	CC(=O)c1c(O)cccc1OCC(O)COc1ccc(Cl)cc1Cl (stereo not drawn)
108 to 110	CC(C)OC(=O)c1cc([N+](=O)[O-])c(O)c([N+](=O)[O-])c1
177 to 179	N#Cc1c[nH]cc1-c1ccc(Cl)cc1C(=O)c1ccccc1F
93 to 93.5	CCCCCCCCC(=O)NCc1ccc(Oc2ccccc2[N+](=O)[O-])c(OC)c1
154	O=C(CO)N[C@H]1CC[C@H](CCN2CCC(c3cccc4c3CCO4)CC2)CC1
132 to 136	CCOCCOc1ccccc1COc1ccc2c(c1)C=C(C(=O)Nc1ccc(CN(C)C3CCOCC3)cc1)CCS2(=O)=O
202 to 204	CCNC(=O)CN(c1ccccc1)[C@@H]1c2cc(C#N)ccc2OC(C)(C)[C@@H]1O
112 to 113	C[C@@H](COc1ccc(N2CCN(c3ccncc3)CC2)cc1)CC(=O)OC(C)(C)C

SMILES	melting point [°C]
CCCc1c(C(=O)C(C)C)c2ccc(C(N)=O)cc2n1Cc1ccccc1Cl	85 to 86
